Data set [1] can be described thus: Histopathology of pancreatic tissue of Example 2: total cross-sectional area and cicatrized area. Conditions: 0.2% in feed, three months. Format: in vivo, male WBN/Kob rats. An excerpt: (§1) Since the decrease in the amount of pancreatic parenchyma resulting from chronic pancreatitis causes loss of pancreatic weight, any suppression of the decrease in the amount of pancreatic parenchyma can be used as an index for evaluating any improvement in the pancreatitis. Furthermore, since degeneration and necrosis of the pancreatic parenchyma and its replacement by connective tissue occurs in chronic pancreatitis, the seriousness of the pancreatitis can be estimated by histopathologically measuring the area over which the pancreatic parenchyma is replaced with connective tissue (known as the "cicatrized area").
(§2) The measurement of the cicatrized area may also be carried out by conventional procedures. More specifically, male WBN/Kob rats are used as models of spontaneous chronic pancreatitis and are fed with a powdered feed admixed with a test compound. The pancreas of each animal is then totally enucleated. Its weight is measured and also the cicatrized area is measured relative to the total cross-sectional area of the pancreas tissue sliced by an image analyser.
The test animals were male WBN/Kob rats, which are commonly used as models of spontaneous chronic pancreatitis and suffer pancreatic weight loss and dysfunction of the exocrine pancreatic tissue due to degeneration and necrosis of the pancreatic parenchyma and its replacement by connective tissue [Tsuchitani et al., Laboratory Animals, 19(3), 200-207, (1985)]. Each group of test animals contained 4 animals, and the animals were used for the experiment when they had reached 12 weeks old. The animals were fed with powdered feed F2 mixed with 0.2% of troglitazone for three months. This group is hereinafter referred to as "the treated group". The average dose of the compound during this period was 140 mg/kg/day. Meanwhile, another four rats (control group) were fed with the powdered feed F2 only. After the rats had been fed with the feeds for three months, the pancreas of each animal was totally enucleated and its weight was measured.
In order to evaluate the results of Example 2 histopathologically, each pancreas used for weight measurement in Example 2 was fixed in 10% neutral formalin. It was then divided into a spleen side half and a duodenum side half, and each half was sliced at 3 mm intervals to provide cross-sectional tissue pieces. […] The total cross-sectional area of the pancreatic tissue piece on each preparation was measured using an image analyser (SPICCAII, manufactured by Olympus Optical Co., Ltd.).
(§3) In addition, the surface area of the zone which had undergone degeneration and necrosis and in which the exocrine pancreatic tissue was replaced with connective tissue (the cicatrized area) was measured using an image analyser.

A short description of data set [2]: Effect of long term treatment on pancreatic weight. It counts as in vivo, male WBN/Kob rats. Conditions: 9.5 months; for Pancreatic weight: control 804 ± 35. The protocol:
(§4) The test animals were male WBN/Kob rats. Each group of test animals contained 6 animals, and the animals were used for the experiment when they had reached 12 weeks old. The animals were fed with powdered feed F2 mixed with 0.2% or 0.05% of troglitazone for 9.5 months. These groups are hereinafter referred to as "the 0.2% group" and "the 0.05% group", respectively. The average doses of the compound during this period were 120 mg/kg/day and 30 mg/kg/day, respectively. Meanwhile, another six rats (control group) were fed with the powdered feed F2 only. After the rats had been fed with the feeds for 9.5 months, each rat was decapitated and its blood was collected. The blood serum was separated and the plasma lipase level was measured using an autoanalyser (type 7250, manufactured by Hitachi Ltd.).
After the blood had been collected, the pancreas of each animal was totally enucleated and weighed.

A further data set is described as follows: Acute toxicity. It counts as in vivo, ddY mice (male). Conditions: single oral dose of 300 mg/kg, observed for 5 days, three mice. The protocol:
Acute toxicity was assayed by conventional procedures. […] At the end of this time, the animals were all alive. When the acute toxicities of Compounds No. 2, 3, 4 and 10 were measured in the same manner, the mice were all alive after an oral dose of 300 mg/kg or more.

The nature of data set [3]: Histopathology of pancreatic tissue of Example 6: total cross-sectional area and cicatrized area. It counts as in vivo, male WBN/Kob rats. Conditions: 9.5 months; for Cicatrized area in the exocrine pancreatic tissue: **p < 0.01. As to the method:
as §2
In order to evaluate the results of Example 2 histopathologically, each pancreas used for weight measurement in Example 2 was fixed in 10% neutral formalin. It was then divided into a spleen side half and a duodenum side half, and each half was sliced at 3 mm intervals to provide cross-sectional tissue pieces. All of these tissue pieces were subjected to paraffin sectioning by conventional procedures and then to hematoxylin-eosin staining and Masson's trichrome staining to prepare two tissue preparations, which were used for histopathological examination. The total cross-sectional area of the pancreatic tissue piece on each preparation was measured using an image analyser (SPICCAII, manufactured by Olympus Optical Co., Ltd.).
as §3, §4
In order to evaluate the results of Example 6 histopathologically, the total cross-sectional area and cicatrized area of each pancreas whose weight was measured in Example 6 was measured by the procedure described in Example 4.

The subject of a further data set is plasma lipase. Nature of the data set: Effect of long term treatment on plasma lipase activity. It counts as in vivo, male WBN/Kob rats. The conditions noted are these: 9.5 months; for Plasma Lipase Activity: control 33.7 ± 7.8.
From the text: In pancreatitis, secretion of digestive enzymes is impaired and delivery of digestive enzymes to the duodenum is reduced. In addition, digestive enzymes leak into the blood and their level in the blood and urine increase. Accordingly, the extent of pancreatitis can be estimated by measuring the amount of digestive enzymes which have leaked into the blood (Methods of Clinical Examination: Kinbara Publisher).
The measurement of digestive enzymes may also be carried out by conventional procedures. For example, after the test drug mixed into powdered feed has been administered to male WBN/Kob rats for a definite period, the blood may be collected and the lipase activity (one of the digestive enzymes) in the plasma may be measured.
as §4

Data set [4] in a line: Increase in the pancreatic weight in a model of spontaneous chronic pancreatitis (3 months). Format: in vivo, male WBN/Kob rats. The conditions noted are these: treated group, 0.2% in feed, 140 mg/kg/day, three months; control 773 ± 17; **p < 0.01 vs. control.
From the text: as §1
Measurement of the weight of the pancreas may be carried out by conventional procedures after the experimental animals have been sacrificed by phlebotomy.
The test animals were male WBN/Kob rats, which are commonly used as models of spontaneous chronic pancreatitis and suffer pancreatic weight loss and dysfunction of the exocrine pancreatic tissue due to degeneration and necrosis of the pancreatic parenchyma and its replacement by connective tissue [Tsuchitani et al., Laboratory Animals, 19(3), 200-207, (1985)]. […] After the rats had been fed with the feeds for three months, the pancreas of each animal was totally enucleated and its weight was measured.

[5] abbreviates: 0.05% group, 30 mg/kg/day in feed.
Setting [6] is: both the 0.2% group and the 0.05% group, vs. control group.

Turning to `Cc1c(C)c2c(c(C)c1O)CCC(C)(COc1ccc(CC3SC(=O)NC3=O)cc1)O2` (centres unmarked) [troglitazone, 5-[4-(6-Hydroxy-2,5,7,8-tetramethylchroman-2-ylmethoxy)benzyl]thiazolidine-2,4-dione], the “Cicatrized area in the exocrine pancreatic tissue” value came out at 6.76 ± 1.37 mm^2 in data set [1] (duodenum side half, control 10.84 ± 0.60, *p < 0.05); 3.31 ± 0.48 mm^2 in data set [1] (spleen side pancreatic half, control 5.95 ± 0.90, *p < 0.05); 1.03 ± 0.16 mm^2 in data set [3] (duodenum side, 0.05% group, control 2.48 ± 0.39); 0.65 ± 0.06 mm^2 in data set [3] (duodenum side, 0.2% group, control 2.48 ± 0.39); 1.68 ± 0.12 mm^2 in data set [3] (spleen side pancreatic half, 0.05% group, control 4.96 ± 0.82); 1.23 ± 0.19 mm^2 in data set [3] (spleen side pancreatic half, 0.2% group, control 4.96 ± 0.82). For the same compound, the “Total cross-sectional area of pancreatic tissue piece” value in data set [1] (duodenum side half, control 89.5 ± 6.6) is 132.8 ± 23.6 mm^2; in data set [1] (spleen side pancreatic half, control 150.5 ± 4.6, *p < 0.05), 172.6 ± 5.3 mm^2; in data set [3] (duodenum side, 0.05% group, control 106.1 ± 6.6) it was 110.6 ± 7.7 mm^2; in data set [3] (duodenum side, 0.2% group, control 106.1 ± 6.6), 122.3 ± 7.4 mm^2; in data set [3] (spleen side pancreatic half, 0.05% group, control 103.0 ± 16.9), 96.2 ± 8.2 mm^2; in data set [3] (spleen side pancreatic half, 0.2% group, control 103.0 ± 16.9, *p < 0.05), 141.9 ± 10.6 mm^2. The “Pancreatic weight” value in data set [2] (setting [5]) was 906 ± 63 mg; in data set [2] (0.2% group, 120 mg/kg/day in feed, ***p < 0.001) it was 1164 ± 52 mg; in data set [4] it was 936 ± 27 mg. Also, the “Pancreatic weight (in words)” value in data set [2] (setting [6]) is “significant increase”. In addition, in “Acute toxicity”, the “Survival (acute toxicity)” value is “all alive”. The “Plasma Lipase Activity” value in the data set on plasma lipase (setting [5]) worked out at 17.5 ± 2.2 IU/l; with plasma lipase (0.2% group, 120 mg/kg/day in feed, *p < 0.05), 13.2 ± 1.0 IU/l. The “Plasma lipase activity (in words)” value with plasma lipase (setting [6]) was “significant decrease”.

The values are drawn from patent US5753681A, “Treatment and prophylaxis of pancreatitis” (Sankyo Company, Limited, priority 1996, dated 1998).
